# Reference: PubChem BioAssay AID1963848 (Molecular Pharmacology Branch, DTP, NCI, 2024)
# “And” between values parts separate entries of the source, which are not always exact repeats. Equal entries are not always repeated.
# Tested on: 379773-124-R-J2-PDC spheroid viability
# Experiment: Anticancer human tumor 379773-124-R-J2-PDC patient-derived endometrial carcinoma cell line growth inhibition [POLQ]
# Details: spheroids with HUVEC and MSC; for viability, T/C: stronger effect = lower value
# Description: Multicellular complex tumor spheroid response to Polymerase (POL) inhibitors (novobiocin, ART-558, RP6685) in combination with a variety of drugs and investigational agents in selected tumor cell lines
# The POL inhibitors (novobiocin, ART-558, and RP6685) were evaluated both individually and in combination with standard of care and investigational anticancer small molecules within a complex spheroid model of solid tumors. . Complex spheroids include a stromal component modeled by human endothelial cells (HUVEC) and fibroblasts modeled by human mesenchymal stem cells (MSCs). The concentration ranges selected for each drug and investigational agent were based upon clinically achievable concentrations if the clinical Cmax of the agent was known.
# Compounds. The drugs and investigational agents: novobiocin (NSC847541), ART-558 (NSC835418), RP-6685 (NSC848927), peposertib (NSC802822), ceralasertib (NSC780249), elimusertib (NSC800525), camonsertib (NSC841442), AZD-1390 (NSC803789), olaparib (NSC753686), talazoparib (NSC767125), rucaparib (NSC756644), sotorasib (NSC818433), MRTX-1133 (NSC836407), SN-38 (NSC673596), topotecan (NSC609699), epotoside (NSC141540), doxorubicin (NSC123127), gemcitabine (NSC613327), 5-fluorouracil (NSC19893), paclitaxel (NSC125973), vemurafenib (NSC761431), MSA-2 (NSC828583), SN-011 (NSC837082), adavosertib (NSC754352), prexasertib (NSC758257), carboplatin (NSC241240) and oxaliplatin (NSC266046), were obtained from the National Cancer Institute (NCI) Developmental Therapeutics Program Chemical Repository (21). The FDA-approved anticancer drug set is available from the Developmental Therapeutics Program at https://dtp.cancer.gov/organization/dscb/obtaining/. […] The stock solutions were prepared in dimethyl sulfoxide (DMSO, Sigma-Aldrich, St. Louis, MO, cat. D2650), except for the platinum compounds which were prepared in saline (Quality Biological, Gaithersburg, MD, cat. 114-055-101), at 800-fold the tested concentration and stored at -70 degrees C prior to their use. All drugs and investigational agents were tested over a range starting from a high concentration at or near the clinical Cmax and decreasing in half-log increments. If the clinical Cmax for an agent had not been determined, the highest concentration tested was 10 microM, except for SN-38, which was tested at a high concentration of 1 microM.
# Cell Culture. All cells were maintained in an incubator at 37 degrees C and 5% CO2 with 95% humidity. The PDC lines were cultured according to standard operating procedures established by the NCI PDMR (https://pdmr.cancer.gov). Table 3 of the manuscript, lists the cell lines along with the number of the three cell types plated to form the mct-spheroids and media for tumor cell growth. After thawing, all PDC lines, except 997537-175-T-J1-PDC and 415267-285-R-J2-PDC, were cultured in Matrigel-coated flasks prepared with a working solution of 1X Ham's F-12 nutrient mix, without supplementation (Thermo Fisher Scientific, cat. 11765054), 100 U/mL penicillin-streptomycin (Thermo Fisher Scientific, cat. 15140122), and 2.5% Matrigel (Corning Inc., Corning, NY, cat. 354248) for the first three passages. The two PDC lines 997537-175-T-J1-PDC and 415267-285-R-J2-PDC were cultured on uncoated flasks. The 857933-349-R-J2-PDC line was cultured in 6C/Colon 1B media containing advanced DMEM/F-12 (Thermo Fisher Scientific, cat. 12634028), 10 mM HEPES (Thermo Fisher Scientific, cat. 15630080), 1X GlutaMAX supplement (Thermo Fisher Scientific, cat. 35050061), 0.1 mg/mL primocin (InvivoGen, San Diego, CA, cat. ant-pm-2), 10% defined fetal bovine serum, heat inactivated (HyClone Laboratories Inc., Logan, UT, cat. SH30070.03HI), 50% L-WRN conditioned media (ATCC, cat. CRL-3276), 1.25 mM N-Acetyl-L-cysteine (Sigma-Aldrich, cat. A9165), 10 mM nicotinamide (Sigma-Aldrich, cat. N0636), 1X B-27 supplement (Thermo Fisher Scientific, cat. 17504044), 1X N-2 supplement (Thermo Fisher Scientific, cat. […]
# 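Further: spheroids exposed to drugs for seven days before readout.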
# 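Wherever viability, T/C is given: percent viability relative to DMSO vehicle control taken as 100%.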
smiles,measurement,setting,value
CCc1c2c(nc3ccc(O)cc13)-c1cc3c(c(=O)n1C2)COC(=O)[C@]3(O)CC + Nc1ccc(C#CCN(C(=O)Cc2ncc(C(F)(F)F)cc2C(F)(F)F)c2ccc(F)cc2)nn1,IC50,"curve of first compound, second compound 0.0316 µM",< 0.00316 µM
same,IC50,"curve of first compound, second compound 0.1 µM",0.00352 µM
same,IC50,"curve of first compound, second compound 0.316 µM",< 0.00316 µM
same,IC50,"curve of first compound, second compound 1 µM",< 0.00316 µM
same,IC50,"curve of first compound, second compound 3.16 µM",< 0.00316 µM
same,IC50,"curve of first compound, second compound 10 µM",< 0.00316 µM
same,"viability, T/C","second compound 0.0316 µM, first compound 0.00316 µM",45.5%
same,"viability, T/C","second compound 0.0316 µM, first compound 0.01 µM",17.6%
same,"viability, T/C","second compound 0.0316 µM, first compound 0.0316 µM",12.6%
same,"viability, T/C","second compound 0.0316 µM, first compound 0.1 µM",4.69%
same,"viability, T/C","second compound 0.0316 µM, first compound 0.316 µM",3.2%
same,"viability, T/C","second compound 0.0316 µM, first compound 1 µM",1.03%
same,"viability, T/C","second compound 0.1 µM, first compound 0.00316 µM",53.6%
same,"viability, T/C","second compound 0.1 µM, first compound 0.01 µM",16.7%
same,"viability, T/C","second compound 0.1 µM, first compound 0.0316 µM",13.1%
same,"viability, T/C","second compound 0.1 µM, first compound 0.1 µM",4.92%
same,"viability, T/C","second compound 0.1 µM, first compound 0.316 µM",1.48%
same,"viability, T/C","second compound 0.1 µM, first compound 1 µM",0.65%
same,"viability, T/C","second compound 0.316 µM, first compound 0.00316 µM",48.6%
same,"viability, T/C","second compound 0.316 µM, first compound 0.01 µM",12.6%
same,"viability, T/C","second compound 0.316 µM, first compound 0.0316 µM",11.1%
same,"viability, T/C","second compound 0.316 µM, first compound 0.1 µM",4.23%
same,"viability, T/C","second compound 0.316 µM, first compound 0.316 µM",1.5%
same,"viability, T/C","second compound 0.316 µM, first compound 1 µM",0.7%
same,"viability, T/C","second compound 1 µM, first compound 0.00316 µM",47.8%
same,"viability, T/C","second compound 1 µM, first compound 0.01 µM",13.7%
same,"viability, T/C","second compound 1 µM, first compound 0.0316 µM",10.4%
same,"viability, T/C","second compound 1 µM, first compound 0.1 µM",5.54%
same,"viability, T/C","second compound 1 µM, first compound 0.316 µM",1.41%
same,"viability, T/C","second compound 1 µM, first compound 1 µM",3.04%
same,"viability, T/C","second compound 3.16 µM, first compound 0.00316 µM",47.9%
same,"viability, T/C","second compound 3.16 µM, first compound 0.01 µM",15.1%
same,"viability, T/C","second compound 3.16 µM, first compound 0.0316 µM",9.79%
same,"viability, T/C","second compound 3.16 µM, first compound 0.1 µM",3.28%
same,"viability, T/C","second compound 3.16 µM, first compound 0.316 µM",1.52%
same,"viability, T/C","second compound 3.16 µM, first compound 1 µM",0.83%
same,"viability, T/C","second compound 10 µM, first compound 0.00316 µM",41.9%
same,"viability, T/C","second compound 10 µM, first compound 0.01 µM",14.7%
same,"viability, T/C","second compound 10 µM, first compound 0.0316 µM",11.6%
same,"viability, T/C","second compound 10 µM, first compound 0.1 µM",4.49%
same,"viability, T/C","second compound 10 µM, first compound 0.316 µM",1.89%
same,"viability, T/C","second compound 10 µM, first compound 1 µM",0.9%
COc1cc2cc(C(=O)CCC(=O)O)sc2cc1OC,"viability, T/C",compound 0.0316 µM,89.3% and 91.6% (2×)
same,"viability, T/C",compound 0.1 µM,85.4% and 96.8% and 107%
same,"viability, T/C",compound 0.316 µM,85.8% and 90.2% and 80.9%
same,"viability, T/C",compound 1 µM,94.6% and 96.7% and 94%
same,"viability, T/C",compound 3.16 µM,105% and 95.3% and 92.9%
same,"viability, T/C",compound 10 µM,91.6% and 79.1% and 73.2%
same,IC50,curve of compound,> 10 µM
COc1ccc([C@@H](O)c2cc(-c3ncnc4cc(N5CCOCC5)ccc34)c(F)cc2Cl)nn1,"viability, T/C",compound 0.0316 µM,92.5% and 98.9% and 94.2%
same,"viability, T/C",compound 0.1 µM,91.3% and 93.2% and 82.2%
same,"viability, T/C",compound 0.316 µM,79.4% and 93.5% and 84.7%
same,"viability, T/C",compound 1 µM,99.3% and 110% and 87.4%
same,"viability, T/C",compound 3.16 µM,67.8% and 76.8% and 86.3%
same,"viability, T/C",compound 10 µM,37.9% and 43.7% and 38.1%
same,IC50,curve of compound,6.28 µM and 8.03 µM and 7.52 µM
Nc1ccc(C#CCN(C(=O)Cc2ncc(C(F)(F)F)cc2C(F)(F)F)c2ccc(F)cc2)nn1,"viability, T/C",compound 0.0316 µM,91.8% [middle of 13 runs]
same,"viability, T/C",compound 0.1 µM,92.8% [middle of 13 runs]
same,"viability, T/C",compound 0.316 µM,93.2% [middle of 13 runs]
same,"viability, T/C",compound 1 µM,91.9% [middle of 13 runs]
same,"viability, T/C",compound 3.16 µM,94.9% [middle of 12 runs]
same,"viability, T/C",compound 10 µM,91.4% [middle of 13 runs]
same,IC50,"compound alone, run of 11/06/2023",> 10 µM
